# Test results as given in patent publication US9187413B2, “Peripherally restricted FAAH inhibitors” (The Regents of the University of California, priority 2010, dated 2015).
# Key:
# [1] = test system: carrageenan-induced inflammation; assay: Carrageenan-induced hyperalgesia, allodynia and paw edema; format: in vivo, mice; conditions: mice, 1 mg-kg^-1, i.p.
# Description: (§1) Behavioral tests. We measured nocifensive responses elicited by i.p. injection of acetic acid in male Swiss and C57B1/6 (wild-type or FAAH-deficient) mice^40, intraplantar injection of carrageenan in male Swiss mice^20, intraplantar injection of formalin in male Sprague-Dawley rats^41, and sciatic nerve ligation in male Swiss mice^39.
# Behavioral tests Acetic acid-induced writhing was measured in Swiss mice or C57B1/6 mice (wild-type and FAAH-deficient), as described^40 with minor modifications. Briefly, the mice were acclimated to the experimental room for 2 h. Each animal was injected with acetic acid (150 μL, 0.6% in saline) and placed into a glass cylinder. Abdominal stretches (extension of body and hind limbs) were counted for 20 min, starting 5 min after acetic acid injection. […] Behavior was scored by an observer blinded to the treatment conditions. Formalin-induced nociception was assessed in Sprague-Dawley rats, as described^41. The rats were singly housed and kept in a shared holding room under a 12:12 h light:dark cycle. They were given free access to food and water, and allowed to acclimate to the facility for a week before testing. […] They were acclimated to the observation container (clear plexiglas box, 29×29×25 cm) for 15 min before receiving an injection of formalin (50 μL, 5% in saline) into the dorsal surface of the right hind paw. Immediately after formalin injection, the rats were returned to the observation container and nocifensive behavior was recorded for 60 min with a video camera. Recordings were analyzed by observers blinded to treatment conditions. Nocifensive behavior was measured continuously for 60 min^41. […] Each 5-min bin was analyzed for time spent (1) lifting and (2) licking or biting the injected paw. Nocifensive behavior was analyzed using the composite pain score weighted scores technique (CPS-WST1,2) calculated for the entire time of observation (0-60 min) and, separately, for the first (0-10 min) and second phase (10-60 min) of the behavioral response^46. The area under the curve (AUC) corresponding to CPS-WST1,2 was calculated using the trapezoidal rule. Paw edema was induced in mice by injection into the right hind paws of 50 μL of sterile saline containing 1% λ-carrageenan. Paw volumes were measured using a plethysmometer (Ugo Basile, Milan, Italy). […] Rimonabant and AM630 (1 mg kg^−1, i.p.) were injected 30 min before carrageenan. Mechanical hyperalgesia was assessed by measuring the latency(s) to withdraw the paw from a constant mechanical pressure exerted onto its dorsal surface. A 15-g calibrated glass cylindrical rod (diameter=10 mm) chamfered to a conical point (diameter=3 mm) was used to exert the mechanical force. The weight was suspended vertically between two rings attached to a stand and was free to move vertically. A cutoff time of 3 min was used. Thermal hyperalgesia was assessed as described^47, measuring the latency to withdraw the hind paw from a focused beam of radiant heat (thermal intensity: infrared 3.0) applied to the plantar surface, using a commercial apparatus (Ugo Basile, Varese, Italy). The cutoff time was set at 30 s. Mechanical allodynia was assessed by applying a graded force to the plantar hind paw surface with a Von Frey filament, using a Dynamic Plantar Anesthesiometer (Ugo Basile). The cutoff force was set at 50 g.
# [2] = test system: sciatic nerve ligation; assay: Sciatic nerve ligation pain behavior; format: in vivo; conditions: mice
# Source text: Surgery. We performed sciatic nerve ligations in male Swiss mice, as previously described for rats^24 with minor modifications^39.
# as §1
# Surgeries All surgeries were conducted under aseptical conditions. Implantation of cannulae for intracerebroventricular (i.c.v.) drug administration. SD rats were anesthesized using a mixture of ketamine (70 mg-kg^−1, i.p.) and xylazine (9.33 mg-kg^−1, i.p.). They were placed in a stereotaxic frame and stabilized by ear bars (David Kopf Instruments, Tujunga, Calif., USA) with the incisor bar set 2.4 mm below the horizontal plane. A 22-gauge stainless-steel guide cannula was implanted into the right lateral cerebral ventricle 7 days prior to experiments. Coordinates for implantation (−0.9 mm antero/posterior and −1.5 mm medio/lateral relative to bregma, and 3.8 mm below the surface of the skull) were determined using the Paxinos and Watson rat brain atlas^45. Guide cannulae were anchored to the skull with 3 stainless-steel screws and dental cement, and were kept patent until injection by insertion of a dummy stylet. […]
# Behavioral tests Acetic acid-induced writhing was measured in Swiss mice or C57B1/6 mice (wild-type and FAAH-deficient), as described^40 with minor modifications. […] Abdominal stretches (extension of body and hind limbs) were counted for 20 min, starting 5 min after acetic acid injection. […] Behavior was scored by an observer blinded to the treatment conditions. Formalin-induced nociception was assessed in Sprague-Dawley rats, as described^41. […]
# [3] = test system: acetic acid-induced writhing; assay: Acetic acid-induced writhing; format: in vivo, mice
# Description: as §1
# Behavioral tests Acetic acid-induced writhing was measured in Swiss mice or C57B1/6 mice (wild-type and FAAH-deficient), as described^40 with minor modifications. Briefly, the mice were acclimated to the experimental room for 2 h. Each animal was injected with acetic acid (150 μL, 0.6% in saline) and placed into a glass cylinder. Abdominal stretches (extension of body and hind limbs) were counted for 20 min, starting 5 min after acetic acid injection. […] Behavior was scored by an observer blinded to the treatment conditions. Formalin-induced nociception was assessed in Sprague-Dawley rats, as described^41. The rats were singly housed and kept in a shared holding room under a 12:12 h light:dark cycle. […] Immediately after formalin injection, the rats were returned to the observation container and nocifensive behavior was recorded for 60 min with a video camera. Recordings were analyzed by observers blinded to treatment conditions. Nocifensive behavior was measured continuously for 60 min^41. […] Each 5-min bin was analyzed for time spent (1) lifting and (2) licking or biting the injected paw. Nocifensive behavior was analyzed using the composite pain score weighted scores technique (CPS-WST1,2) calculated for the entire time of observation (0-60 min) and, separately, for the first (0-10 min) and second phase (10-60 min) of the behavioral response^46. The area under the curve (AUC) corresponding to CPS-WST1,2 was calculated using the trapezoidal rule. […] Paw volumes were measured using a plethysmometer (Ugo Basile, Milan, Italy). […] Mechanical hyperalgesia was assessed by measuring the latency(s) to withdraw the paw from a constant mechanical pressure exerted onto its dorsal surface. […]
# [4] = single dose 1 mg-kg^-1, i.p., 2 h before testing, one week after surgery, operated paws
smiles,measurement,setting,value
"NC(=O)c1cccc(-c2cc(OC(=O)NC3CCCCC3)ccc2O)c1 [Compound 1b, cyclohexylcarbamic acid 3′-carbamoyl-6-hydroxybiphenyl-3-yl ester]","carrageenan-induced paw edema, 4 h",[1]; 4 h after carrageenan,did not affect paw edema
same,carrageenan-induced mechanical and thermal hyperalgesia,[1]; 4 h and 24 h following carrageenan,significant decrease
same,carrageenan-induced mechanical allodynia,[1]; 24 h after carrageenan,suppressed mechanical allodynia
same,"carrageenan-induced paw edema, 24 h",[1]; 24 h after carrageenan,reversed it
same,antinociceptive effect of repeated injections after sciatic nerve ligation,"[2]; 1 mg-kg^-1, i.p., once daily for 4 days, starting 3 days after ligation",undistinguishable from that caused by single drug dosing
same,mechanical hyperalgesia and mechanical allodynia after sciatic nerve ligation,[2]; [4],suppressed mechanical hyperalgesia and mechanical allodynia
same,thermal hyperalgesia after sciatic nerve ligation,[2]; [4],attenuated thermal hyperalgesia
same,nocifensive behavior when administered alone,"[3]; mice, 1 mg-kg^-1, without acetic acid",no detectable nocifensive behavior
same,acetic acid-induced writhing ED50,"[3]; mice, subcutaneous administration, 1 h before acetic acid",0.1 mg/kg
same,reduction of acetic acid-induced writhing in FAAH-deficient mice,"[3]; mutant FAAH-deficient mice, 1 mg-kg^-1",absent
